Laboratory results from publication PMC5147891 (PLoS ONE, 2016).
Read-outs that look alike come from different tables or passages of the source. Marks after values point to notes of the source that are not given here.

Columns and labels:
hCB2 receptors [1] = biological target: T1, hCB2 receptors (Homo sapiens, UniProt P34972); experiment: [35S]GTPγS binding (G-protein activity), CHO-hCB2 membranes; assay type: biochemical; conditions: 10 μM
T1 construct: expressed in transfected cells
Description: (§1) CHO-hCB1, CHO-hCB2 and CHO-hMOR cells were homogenized individually with 10 complete strokes utilizing a 7ml Dounce glass homogenizer in an ice-cold buffer containing 50 mM HEPES pH 7.4, 3 mM MgCl2, and 1 mM EDTA as described previously. The homogenized samples were then centrifuged at 40,000 × g for 10 min at 4°C. Supernatants were discarded; the pellets re-suspended in the buffer, homogenized again, and centrifuged similarly twice more. After the final centrifugation step, supernatants were discarded and pellets were re-suspended in ice-cold 50 mM HEPES, pH 7.4 to achieve an approximate protein concentration of 10 mg/ml. Membrane homogenates were divided into aliquots and stored at −80°C for future use. A small aliquot of each membrane preparation was removed prior to freezing and the protein concentration was determined using BCA Protein Assay (Thermo Fisher Scientific, Waltham, MA).
The GTPγS binding assay to measure G-protein activation was performed as previously described. Briefly, in a total volume of 1 ml, 25 μg of CHO-hCB2, 50 μg of CHO-hCB1-Rx or 50 μg of CHO-hMOR membranes homogenates were added to each reaction mixture containing 0.1 nM [^35S]GTPγS, 20 mM HEPES, 10 mM MgCl2, 100 mM NaCl, 10 μM GDP, 0.1% bovine serum albumin and the indicated concentrations of ligand to be examined. After mixing, reaction mixtures were incubated at 30°C for 30 min. […] Nonspecific binding was defined by the amount of radioactivity remaining in the presence of 10 μM non-radiolabeled GTPγS. […] Four ml of scintiverse scintillation fluid (Fisher Scientific, Waltham, MA) was added to the filters and the amount of radioactivity was quantified 24 hr later utilizing liquid scintillation spectrophotometry.
(§2) Data presented are expressed as mean ± standard error of the mean (S.E.M.) for a minimum of three experiments, each performed in triplicate. […] To compare three or more groups, statistical significance of the data was determined by a one-way ANOVA, followed by post hoc comparisons using a Tukey's or Dunnett's test. […]

ERs = conditions: ref [23], [24]; cited from earlier work
hCB2 receptors [2] = biological target: T1, hCB2 receptors; experiment: Forskolin-stimulated intracellular [3H]cAMP in intact CHO-hCB2 cells; assay type: cell-based; conditions: for EMAX, intracellular [3H]cAMP: forskolin-stimulated cAMP; for EMAX, intracellular [3H]cAMP / EC50: values only approximate
Description: (§3) CHO-hCB1, CHO-hCB2, or CHO-hMOR cells were plated separately in normal culture media into 24-well plates at a density of 6 × 10^6 cells/plate and incubated overnight at 37°C in 5% CO2. As previously described, the following day culture media was removed from each well and replaced with 500 μl pre-incubation mixture containing either HAM’s F-12 K (CHO-hCB1) or DMEM (CHO-hCB2 and CHO-hMOR) with 0.9% NaCl, 500 μM 3-isobutyl-1-methylxathine (IBMX) and 2 μCi/well [^3H]adenine. Cells were incubated for 3–5 hr at 37°C. The pre-incubation mix was removed and indicated concentrations of drugs were added to the individual wells for 15 min at 37°C in a Krebs-Ringer-HEPES solution (10 mM HEPES, 110mM NaCl, 25mM Glucose, 55mM Sucrose, 5mM KCl, 1mM MgCl2, 1.8 mM CaCl2, pH 7.4) containing IBMX, and 10 μM forskolin. Reactions were terminated by adding 50 μl 2.2N HCl and [^3H]cAMP was isolated by employing alumina column chromatography. Radioactivity contained in 4 ml of the final column eluate was counted by a Packard-Tri-carb 2100/TR liquid scintillation counter after adding 10 ml of liquid scintillation cocktail.
To determine if modulation of adenylyl cyclase activity by SERMs was mediated through CB2 receptors coupling to Gi/o proteins, additional cAMP assays were conducted following overnight treatment with pertussis toxin as described elsewhere. Briefly, CHO-hCB2 cells were seeded into 24-well plates as described above in normal culture media containing 100 ng/ml of pertussis toxin and incubated overnight at 37°C. Pertussis toxin-treated media was removed and measurement of intracellular [^3H]cAMP levels following indicated SERM treatments was conducted as described above.
(§4) Data presented are expressed as mean ± standard error of the mean (S.E.M.) for a minimum of three experiments, each performed in triplicate. GraphPad Prism version 6.0f (GraphPad Software Inc.) was used for all curve-fitting and statistical analyses. Non-linear regression for one-site competition was used to determine the IC50 for competition receptor binding. IC50 values were subsequently converted to Ki values (a measure of receptor affinity) by the Cheng-Prusoff equation [31]. Non-linear regression was also used to analyze concentration-effect curves to determine the EC50 or IC50 (measures of potency) and Emax or Imax (measures of efficacy) for GTPγS binding and adenylyl cyclase experiments, respectively. All dissociation constants and measurements of potency were converted to pKi, pKB, pEC50, or pIC50 values by taking the negative log of each value so that parametric tests could be used for statistical comparisons. To compare three or more groups, statistical significance of the data was determined by a one-way ANOVA, followed by post hoc comparisons using a Tukey's or Dunnett's test. To compare two groups, the non-paired Student's t-test was used.

hCB2 receptors [3] = biological target: T1, hCB2 receptors; experiment: Competition receptor binding with [3H]CP-55,940, CHO-hCB2 membranes; conditions: [3H]CP-55,940 binding, CHO-hCB2, 0.2 nM [3H]CP-55,940, CHO-hCB2 membranes
Description: as §1
(§5) Competition receptor binding was performed as reported earlier. […] The total volume of the incubation mixture was 1 ml. All reactions were mixed and allowed to reach equilibrium binding by incubation at room temperature for 90 min. […] Binding was terminated by rapid vacuum filtration through glass fiber filters (Brandel, Gaithersburg, MD), followed by four 5 ml washes of ice-cold 50 mM Tris-HCl (pH 7.4) buffer containing 0.1% bovine serum albumin. Four ml of scintiverse scintillation fluid (Fisher Scientific, Waltham, MA) was added to the filters and the amount of radioactivity was quantified 24 hr later utilizing liquid scintillation spectrophotometry.
as §4

hCB1 receptors [4] = biological target: T2, hCB1 receptors (Homo sapiens, UniProt P21554); experiment: Competition receptor binding with [3H]CP-55,940, CHO-hCB1 membranes; conditions: for Ki: [3H]CP-55,940 binding, CHO-hCB1, 0.2 nM [3H]CP-55,940, CHO-hCB1 membranes; for Selectivity (CB1/CB2): ratio hCB1-Ki/hCB2-Ki
T2 sequence (P21554 whole entry): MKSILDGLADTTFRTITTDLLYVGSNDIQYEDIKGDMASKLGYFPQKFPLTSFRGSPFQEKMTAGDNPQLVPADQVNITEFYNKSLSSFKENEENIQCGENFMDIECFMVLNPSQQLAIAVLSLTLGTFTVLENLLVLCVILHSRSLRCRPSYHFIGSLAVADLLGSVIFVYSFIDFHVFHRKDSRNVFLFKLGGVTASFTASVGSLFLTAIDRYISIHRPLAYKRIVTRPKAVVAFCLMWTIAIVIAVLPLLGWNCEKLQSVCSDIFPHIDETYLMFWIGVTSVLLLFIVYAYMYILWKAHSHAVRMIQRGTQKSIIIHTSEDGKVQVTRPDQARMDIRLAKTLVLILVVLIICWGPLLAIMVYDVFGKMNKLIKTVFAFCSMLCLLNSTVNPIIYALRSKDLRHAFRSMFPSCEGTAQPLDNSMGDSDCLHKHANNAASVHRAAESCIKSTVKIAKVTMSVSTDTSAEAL
Description: as §1, §5, §4

hCB1 receptors [5] = biological target: T2, hCB1 receptors; experiment: Antagonism of CP-55,940 inhibition of AC activity in intact CHO-hCB1 cells; assay type: cell-based; conditions: for Kb: read-out: Kb (antagonist dissociation constant)
Description: (§6) After overnight seeding into 24-well plates and pre-incubation of cells with [^3H]adenine for 3–5 hr at 37°C as described above, media was removed and the indicated concentration of the SERM to be tested was added to all wells of the 24-well plate. […] Reactions were terminated and [^3H]cAMP isolated as described above.
as §4

hCB1 receptors [6] = biological target: T2, hCB1 receptors; experiment: [35S]GTPγS binding (G-protein activity), CHO-hCB1 membranes; assay type: biochemical; conditions: 10 μM
Description: as §1
The GTPγS binding assay to measure G-protein activation was performed as previously described. Briefly, in a total volume of 1 ml, 25 μg of CHO-hCB2, 50 μg of CHO-hCB1-Rx or 50 μg of CHO-hMOR membranes homogenates were added to each reaction mixture containing 0.1 nM [^35S]GTPγS, 20 mM HEPES, 10 mM MgCl2, 100 mM NaCl, 10 μM GDP, 0.1% bovine serum albumin and the indicated concentrations of ligand to be examined. After mixing, reaction mixtures were incubated at 30°C for 30 min. […] Nonspecific binding was defined by the amount of radioactivity remaining in the presence of 10 μM non-radiolabeled GTPγS. Reactions were terminated by rapid vacuum filtration through glass fiber filters followed by four washes with ice cold 50 mM HEPES (pH 7.4) containing 0.1% bovine serum albumin. Four ml of scintiverse scintillation fluid (Fisher Scientific, Waltham, MA) was added to the filters and the amount of radioactivity was quantified 24 hr later utilizing liquid scintillation spectrophotometry.
as §4, with “All dissociation constants and measurements of potency were converted to pKi, pKB, pEC50, or pIC50 values by taking the negative log of each value so that parametric tests could be used for statistical comparisons.” left out, “To compare two groups, the non-paired Student's t-test was used.” left out

hCB1 receptors [7] = biological target: T2, hCB1 receptors; experiment: Forskolin-stimulated intracellular [3H]cAMP in intact CHO-hCB1 cells; assay type: cell-based; conditions: concentration-effect curves
Description: as §3, with “Reactions were terminated by adding 50 μl 2.2N HCl and [^3H]cAMP was isolated by employing alumina column chromatography.” left out
as §2

hCB2 receptors [8] = biological target: T1, hCB2 receptors; experiment: Antagonism of CP-55,940 inhibition of AC activity in intact CHO-hCB2 cells; assay type: cell-based
Description: as §6, §4

[9] = increase of forskolin-stimulated cAMP
[10] = CHO-hCB1 cells, against CP-55,940, AM-281 1 μM, Z-4OHT 10 μM, Z-End 30 μM

T1 sequence (P34972 whole entry): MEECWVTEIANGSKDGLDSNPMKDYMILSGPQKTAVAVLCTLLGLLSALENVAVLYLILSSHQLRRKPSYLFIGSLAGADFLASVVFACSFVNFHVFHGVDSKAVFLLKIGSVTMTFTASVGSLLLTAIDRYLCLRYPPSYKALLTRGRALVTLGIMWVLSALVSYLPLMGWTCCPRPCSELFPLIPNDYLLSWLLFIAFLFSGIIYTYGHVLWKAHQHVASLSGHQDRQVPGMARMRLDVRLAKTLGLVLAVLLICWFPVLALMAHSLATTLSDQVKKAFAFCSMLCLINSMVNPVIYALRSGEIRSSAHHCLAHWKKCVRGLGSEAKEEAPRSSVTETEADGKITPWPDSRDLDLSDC

Row | SMILES | IMAX, decrease in basal G-protein activity ([35S]GTPγS binding) (hCB2 receptors [1]) | EMAX, intracellular [3H]cAMP (hCB2 receptors [2]) | Ki (hCB2 receptors [3]) | EC50 (hCB2 receptors [2]; [9]) | Ki (hCB1 receptors [4]) | Selectivity (CB1/CB2) (hCB1 receptors [4]) | Type of antagonism of CP-55,940 (hCB1 receptors [5]; CHO-hCB1 cells) | Type of antagonism of CP-55,940 (hCB2 receptors [8]) | further results
1 | CC/C(=C(\c1ccccc1)c1ccc(OCCN(C)C)cc1)c1ccccc1 [E-Tam, tamoxifen] | 49.7 ± 1.5% | 464 ± 48^a^, ^†† % |  |  |  |  |  |  | Functional activity at ERs (ERs): ER agonist
2 | CC/C(=C(/c1ccc(O)cc1)c1ccc(OCCNC)cc1)c1ccccc1 [E-End, 4-hydroxy-N-desmethyl tamoxifen] |  | 239 ± 22^b % | 2350 nM | 10700 nM | 1390 nM | 0.59 |  |  | 
3 | Cc1c(C(=O)NN2CCOCC2)nn(-c2ccc(Cl)cc2Cl)c1-c1ccc(I)cc1 [AM-281] |  |  |  |  |  |  | surmountable antagonism |  | pKb (hCB1 receptors [5]; [10]): 6.81 ± 0.061; Kb (hCB1 receptors [5]; [10]): 155 nM; Shift (decrease) in potency (IC50) of CP-55,940 (hCB1 receptors [5]; CHO-hCB1 cells, AM-281 1 μM, Z-Tam 30 μM): greater than 8 fold; IMAX of CP-55,940, intracellular [3H]cAMP (hCB1 receptors [5]; CHO-hCB1 cells, CP-55,940 alone or after pre-incubation with AM-281 1 μM, Z-Tam 30 μM, Z-4OHT 10 μM, Z-End 30 μM): 35.7 ± 0.9^a %; Effect on basal [35S]GTPγS binding (hCB1 receptors [6]): decreased; IMAX, inhibition of basal [35S]GTPγS binding (hCB1 receptors [6]): 33. ± 3.2%; Effect on basal cAMP levels (hCB1 receptors [7]): did not alter cAMP levels
4 | COc1ccc(C(=O)c2c(C)n(CCN3CCOCC3)c3cc(I)ccc23)cc1 [AM-630] | 28.7% | 214 ± 6.5% |  | 398 nM |  |  |  | parallel rightward-shift | IMAX of CP-55,940, intracellular [3H]cAMP (hCB2 receptors [8]; CP-55,940 alone or after pre-incubation with AM-630 1 μM, Z-Tam 10 μM, Z-4OHT 10 μM, Z-End 30 μM): 31.7 ± 0.3^a %; pKb (hCB2 receptors [8]; against CP-55,940, AM-630 1 μM, Z-Tam 10 μM, Z-4OHT 10 μM): 7.26 ± 0.064; Kb (hCB2 receptors [8]; against CP-55,940, AM-630 1 μM, Z-Tam 10 μM, Z-4OHT 10 μM, listed as +AM-630, read-out: Kb (antagonist dissociation constant)): 55 nM; Kb (hCB2 receptors [8]; against CP-55,940, AM-630 1 μM, Z-Tam 10 μM, Z-4OHT 10 μM, read-out: Kb (antagonist dissociation constant)): 55.4 nM; pEC50, intracellular [3H]cAMP (hCB2 receptors [2]; increase of forskolin-stimulated cAMP, mean ± SEM): 6.40 ± 0.096
5 | CC/C(=C(\c1ccc(O)cc1)c1ccc(OCCNC)cc1)c1ccccc1 [Z-End, 4-hydroxy-N-desmethyl tamoxifen] |  | 259 ± 18^b % | 2390 nM | 11500 nM | 1160 nM | 0.49^†† | surmountable antagonism | insurmountable | Kb (hCB1 receptors [5]): 2570 nM; Shift-to-the-right in potency (IC50) of CP-55,940 (hCB2 receptors [8]; Z-End 30 μM): > 8 fold
